Assay type in all cases: cell-based, human
Experiment [1] relates to SK-Br3 cells. Description: MTT cell viability / isobologram analysis, SK-Br3. How it is done: FIG. 10. […] Cells in exponential growth were harvested, seeded at a concentration of ˜5×10^3 cells/200 μl/well into 96-well plates and allowed to attach overnight. […] Agents were studied in combination concurrently, and they were not renewed during the entire period of cell exposure. After treatment, the medium was removed and replaced by fresh drug-free medium (100 μl/well), and MTT (5 mg/ml in phosphate-buffered saline [PBS]) was added to each well at a 1/10 volume. After 2-3 hours at 37° C., the supernatants were removed, 100 μl of dimethylsulfoxide was added to each well, and the plates were agitated. Absorbances were measured at 570 nm using a multiwell plate reader (Model Anthos Labtec 2010 1.7 reader). The cell viability effects from exposure of cells to each agent alone and to their combination were analyzed by generating concentration-effect curves as a plot of the fraction of unaffected (surviving) cells versus drug concentration. Dose-response curves were plotted as percentages of the control cell absorbances, which were obtained from control wells treated with appropriate concentrations of vehicles that were processed simultaneously. For each treatment, cell viability was evaluated as a percentage using the following equation: (A570 of treated sample/A570 of untreated sample)×100. […] All statistical tests were two-sided. […]

Experiment [2] has as its system SK-Br3 cells. Description: TUNEL apoptosis assay, SK-Br3. As to conditions: GLA 10 μg/mL, trastuzumab 10 μg/mL, alone or together, 48 hours. How it is done: FIG. 6. […] After 72 hours, a TUNEL analysis was performed using the DeadEnd® Fluorometric TUNEL System (Promega Inc.) according to the manufacturer's protocol. The immunofluorescence photomicrographs of cells undergoing apoptosis (green staining) and the corresponding DAPI-counterstained photomicrographs are shown. […] Equal amounts of total protein (50 μg per lane) were subjected to Western blot analyses with a specific antibody against the p85 fragment of PARP, and then re-probed with a β-actin antibody. […] For each pair of columns, the height of the columns on the left represents the sum of the effect of each agent alone and, therefore, the expected apoptotic cell death if their effect was additive when used in combination. […] A) Cell surface expression of Her-2/neu protein in BT-474 and SK-Br3 cells was determined by flow cytometry using a mouse anti-Her-2/neu antibody directed against the extracellular domain of the p185^Her-2/neu oncoprotein (clone Ab-5; Oncogene Research Products; San Diego, Calif.). […] The mean fluorescence signal associated with cells for labeled p185^Her-2/neu was quantified using the Geo Mean (GM) fluorescence parameter provided with the software. […] Immunoreactive bands were detected by enhanced chemiluminescence reagent (Pierce, Rockford, Ill.). […] Densitometric values of protein bands were quantified using Scion Imaging Software (Scion Corp., Frederick, Md.).

A further experiment relates to p27^Kip1. Description: Western blot of p27Kip1 expression. As to conditions: BT-474; 72 hours; OA, trastuzumab or combination. An excerpt:
(§1) Densitometric values of protein bands were quantified using Scion Imaging Software (Scion Corp., Frederick, Md.).
Background: A western blot detects proteins with antibodies after separation by electrophoresis.

For experiment [3], the system named is phospho-MAPK and phospho-Ser^473 AKT. Description: Western blot of phospho-MAPK and phospho-AKT. The following applies: BT-474; 48 hours; OA 5 μM, trastuzumab 10 μg/ml in combination.
Description: as §1

Another experiment relates to SK-Br3 and BT-474 cells. Description: Anchorage-dependent cell proliferation (Coulter Counter). The following applies: low concentrations of OA, increasing concentrations of trastuzumab, or combination, 6 days.

Description for SK-Br3 and BT-474 cells: (A) Left panel: exponentially growing SK-Br3 and BT-474 cells were trypsinized and plated in 24-well plates at a density of 10,000 cells/well. Cells were incubated for 24 hours to allow for attachment and starved for serum overnight, after which a zero time point was determined. […] Cells were counted at days 0, 3 and 6 with a Coulter Counter. All assays were performed three times in triplicate. The data are presented as mean number of cells×10^4/well (columns)±SD (bars) after 6 days treatment. […] For each pair of columns, the height of the columns on the left represents the sum of the effect of each agent alone and, therefore, the expected percentage of cell growth inhibition if their effect was additive when used in combination. […] Colony formation (≧50 μm) was assessed using a colony counter. Each experimental value represents the mean colony number (columns)±SD (bars) from three separate experiments in which triplicate dishes were counted. […]
SK-Br3 and BT-474 cells exponentially growing in IMEM-5% FBS were trypsinized and re-plated in 24-well plates at a density of 10,000 cells/well. Cells were incubated for 24 hours to allow for attachment, after which a zero time point was determined. […] Cell number was determined at days 0, 3 and 6 with a Coulter Counter (Coulter Electronics, Inc., Hialeah, Fla.). […]

For `CCCCCC=CCC=CCC=CCCCCC(=O)O` [GLA, 6,9,12-octadecatrienoic acid], in the experiment with SK-Br3 cells [1] (concurrent 10 μg/ml GLA), the “increase in sensitivity to trastuzumab” value is recorded as approximately 40 fold. In addition, the “cells that underwent apoptosis (TUNEL)” value with SK-Br3 cells [2] is 3% (95% CI=2 to 4%).
With `CCCCCCCCC=CCCCCCCCC(=O)O` [OA, 9-octadecenoic acid], the “expression of p27^Kip1” value with p27^Kip1 is recorded as “slight increase”. Besides, the “active MAPK and active AKT (phospho-MAPK, phospho-Ser^473 AKT)” value in experiment [3] was “inhibited active MAPK and active AKT”. The “sensitization factor (IC50 without OA / IC50 with OA)” value in the experiment on SK-Br3 cells [1] (OA co-exposure, sensitization to trastuzumab) is listed as 27 fold. For the same compound, the anchorage-dependent cell growth entry in the experiment with SK-Br3 and BT-474 cells is listed as “no notable effects”.
